The values below come from patent US8178668B2, “2-aminopyridine kinase inhibitors” (OSI Pharmaceuticals, LLC, priority 2008, dated 2012).

The target of one assay is MET (human) (Homo sapiens, UniProt P08581). In words: MET kinase AlphaScreen assay (Km of ATP). The class given is biochemical. Conditions: ATP at Km; at least duplicate experiments. In outline:
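Biotinylated poly(Glu,Tyr) (200 ng/μL) phosphorylated by MET with ATP at an enzyme-optimized level, in 50 mM HEPES pH 7.4 with Mg2+/Mn2+ and vanadate, 1% DMSO. Reaction runs 60 min at RT. PT66 AlphaScreen donor/acceptor beads are added and signal is read after 1 h.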
For orientation: Bead proximity is the source of the signal in Alpha formats.

The next assay deals with RON (human) (Homo sapiens, UniProt Q04912). The assay can be described thus: RON kinase AlphaScreen assay (Km of ATP). The format is biochemical. Conditions: ATP at Km; at least duplicate experiments. In outline:
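Human RON phosphorylated biotinylated poly(Glu,Tyr) (200 ng/μL) at Km ATP in 50 mM HEPES pH 7.4, 12.5 mM MgCl2, 1% glycerol, 0.334 mM vanadate, 1% DMSO. Reaction ran 30 min at RT after enzyme addition. Product was detected by AlphaScreen with PT66 beads after 1 h.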

Structures can show the parent of a compound that is named as a salt. A value given as a limit tells only on which side of the number the result lay.

Sequence of RON (human) (Q04912 25-1400): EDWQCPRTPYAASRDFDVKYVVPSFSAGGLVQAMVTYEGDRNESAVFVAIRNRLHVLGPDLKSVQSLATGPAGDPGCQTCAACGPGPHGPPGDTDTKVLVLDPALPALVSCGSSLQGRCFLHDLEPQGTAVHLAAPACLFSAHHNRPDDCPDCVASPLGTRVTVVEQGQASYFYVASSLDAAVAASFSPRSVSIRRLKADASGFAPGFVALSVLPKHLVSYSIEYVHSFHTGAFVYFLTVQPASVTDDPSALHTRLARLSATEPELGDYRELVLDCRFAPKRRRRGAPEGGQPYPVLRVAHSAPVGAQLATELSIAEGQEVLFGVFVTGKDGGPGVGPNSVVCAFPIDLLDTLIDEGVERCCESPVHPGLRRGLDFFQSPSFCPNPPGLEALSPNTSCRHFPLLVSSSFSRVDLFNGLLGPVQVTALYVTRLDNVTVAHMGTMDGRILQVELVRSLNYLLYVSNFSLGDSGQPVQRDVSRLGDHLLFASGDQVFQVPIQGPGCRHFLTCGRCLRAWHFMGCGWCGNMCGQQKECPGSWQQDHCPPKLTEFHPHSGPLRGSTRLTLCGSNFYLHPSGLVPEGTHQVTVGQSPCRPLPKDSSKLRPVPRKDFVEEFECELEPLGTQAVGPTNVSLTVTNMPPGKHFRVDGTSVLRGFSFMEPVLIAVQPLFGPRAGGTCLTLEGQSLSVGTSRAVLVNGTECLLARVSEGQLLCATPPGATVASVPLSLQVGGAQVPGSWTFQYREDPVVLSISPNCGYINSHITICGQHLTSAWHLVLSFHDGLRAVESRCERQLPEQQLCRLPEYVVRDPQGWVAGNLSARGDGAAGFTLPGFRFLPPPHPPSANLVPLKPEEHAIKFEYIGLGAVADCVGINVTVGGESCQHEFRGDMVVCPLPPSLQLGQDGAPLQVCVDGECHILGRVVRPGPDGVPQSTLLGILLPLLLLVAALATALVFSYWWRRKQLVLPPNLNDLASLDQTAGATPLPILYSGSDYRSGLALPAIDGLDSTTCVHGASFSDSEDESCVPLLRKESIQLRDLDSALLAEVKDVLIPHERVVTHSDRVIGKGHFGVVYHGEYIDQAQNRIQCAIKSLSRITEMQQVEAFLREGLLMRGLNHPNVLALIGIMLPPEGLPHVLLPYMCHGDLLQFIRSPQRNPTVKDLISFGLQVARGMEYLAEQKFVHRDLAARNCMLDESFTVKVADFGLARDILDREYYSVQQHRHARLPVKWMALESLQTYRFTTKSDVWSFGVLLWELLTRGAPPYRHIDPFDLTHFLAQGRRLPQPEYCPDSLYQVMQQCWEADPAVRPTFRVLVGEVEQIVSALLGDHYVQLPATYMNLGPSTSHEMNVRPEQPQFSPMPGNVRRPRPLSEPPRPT
Sequence of MET (human) (P08581 25-1390): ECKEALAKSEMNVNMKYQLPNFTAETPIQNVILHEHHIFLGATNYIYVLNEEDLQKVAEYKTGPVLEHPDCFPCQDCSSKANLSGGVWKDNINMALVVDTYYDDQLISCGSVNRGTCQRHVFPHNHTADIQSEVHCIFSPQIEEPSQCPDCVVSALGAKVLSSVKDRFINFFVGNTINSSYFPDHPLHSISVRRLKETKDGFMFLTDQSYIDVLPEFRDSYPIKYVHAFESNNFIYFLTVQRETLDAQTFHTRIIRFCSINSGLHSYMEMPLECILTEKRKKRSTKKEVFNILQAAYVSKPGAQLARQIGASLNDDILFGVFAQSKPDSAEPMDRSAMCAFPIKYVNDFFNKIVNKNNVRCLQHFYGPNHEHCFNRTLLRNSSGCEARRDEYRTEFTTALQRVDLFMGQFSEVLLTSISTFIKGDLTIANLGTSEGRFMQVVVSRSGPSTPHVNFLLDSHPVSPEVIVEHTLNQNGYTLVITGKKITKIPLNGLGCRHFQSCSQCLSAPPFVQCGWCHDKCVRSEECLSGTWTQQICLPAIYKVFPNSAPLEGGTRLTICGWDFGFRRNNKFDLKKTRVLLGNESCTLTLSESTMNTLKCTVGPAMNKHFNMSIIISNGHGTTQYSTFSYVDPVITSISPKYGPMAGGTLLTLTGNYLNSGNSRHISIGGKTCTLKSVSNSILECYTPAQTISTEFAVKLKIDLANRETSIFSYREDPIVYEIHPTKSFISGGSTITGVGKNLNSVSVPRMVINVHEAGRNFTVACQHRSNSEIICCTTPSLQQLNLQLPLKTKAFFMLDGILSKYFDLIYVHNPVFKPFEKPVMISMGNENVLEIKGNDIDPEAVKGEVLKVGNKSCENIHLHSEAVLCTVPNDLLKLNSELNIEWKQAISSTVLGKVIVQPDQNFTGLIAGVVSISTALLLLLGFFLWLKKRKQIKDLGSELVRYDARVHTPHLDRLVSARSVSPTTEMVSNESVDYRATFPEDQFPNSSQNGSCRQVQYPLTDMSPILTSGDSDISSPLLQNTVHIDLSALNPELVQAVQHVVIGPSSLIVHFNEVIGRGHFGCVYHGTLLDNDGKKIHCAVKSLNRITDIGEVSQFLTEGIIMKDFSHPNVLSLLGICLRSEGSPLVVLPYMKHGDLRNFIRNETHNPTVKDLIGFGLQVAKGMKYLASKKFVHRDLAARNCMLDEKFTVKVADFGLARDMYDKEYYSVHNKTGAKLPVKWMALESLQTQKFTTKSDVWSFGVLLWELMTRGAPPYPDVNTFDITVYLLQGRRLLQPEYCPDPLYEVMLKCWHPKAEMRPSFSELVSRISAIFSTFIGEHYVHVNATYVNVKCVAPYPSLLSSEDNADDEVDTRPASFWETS

In the case of `CN1C2CCC1CC(n1cc(-c3cnc(N)c(-c4nc5ccccc5s4)c3)cn1)C2` (stereo not shown) [Example 108, 3-Benzothiazol-2-yl-5-[1-(8-methyl-8-azabicyclo [3.2.1]oct-3-yl)-1H-pyrazol-4-yl]-pyridin-2-ylamine trihydrochloride], the IC50 at MET (human) and against RON (human) was no more than 100 nM throughout.

With `CN1C2CCC1CC(n1cc(-c3cnc(N)c(-c4nc5ccccc5s4)c3)cn1)C2` (stereo not shown) [Example 109, 3-Benzothiazol-2-yl-5-[1-(8-methyl-8-azabicyclo[3.2.1]oct-3-yl)-1H-pyrazol-4-yl]-pyridin-2-ylamine], the IC50 against MET (human) and against RON (human) was no more than 100 nM throughout.

Regarding `Nc1ncc(-c2cnn(C3CC4CCC(C3)N4)c2)cc1-c1nc2ccccc2s1` (stereo not shown) [Example 110, 5-[1-(8-Azabicyclo[3.2.1]oct-3-yl)-1H-pyrazol-4-yl]-3-benzothiazol-2-ylpyridin-2-ylamine], the IC50 on MET (human) and at RON (human) was 100 to 1000 nM throughout.

For `Nc1ncc(-c2cnn(C3CCOCC3)c2)cc1-c1nc2ccccc2s1` [Example 111, 3-Benzothiazol-2-yl-5-[1-(tetrahydropyran-4-yl)-1H-pyrazol-4-yl]-pyridin-2-ylamine], the IC50 at MET (human) and at RON (human) was 100 to 1000 nM each time.

Regarding `Nc1ncc(-c2cn[nH]c2)cc1-c1nc2ccccc2s1` [Example 112, 3-Benzothiazol-2-yl-5-(1H-pyrazol-4-yl)-pyridin-2-ylamine], the IC50 at MET (human) and on RON (human) was 1000 to 20000 nM throughout.

In the case of `Nc1ncc(-c2cnn(C3CCCCC3)c2)cc1-c1nc2ccccc2s1` [Example 113, 3-Benzothiazol-2-yl-5-(1-cyclohexyl-1H-pyrazol-4-yl)-pyridin-2-ylamine bis-hydrochloride], the results for the IC50 on MET (human) and against RON (human) were 100 to 1000 nM and 1000 to 20000 nM, respectively.

For `COCCN1CCC(n2cc(-c3cnc(N)c(-c4nc5ccccc5s4)c3)cn2)CC1` [Example 114, 3-Benzothiazol-2-yl-5-1-[1-(2-methoxyethyl)-piperidin-4-yl]-1H-pyrazol-4-yl-pyridin-2-ylamine], the IC50 on MET (human) and against RON (human) was 100 to 1000 nM throughout.

Consider `Nc1ncc(-c2cnn(C3CCN(CC(F)(F)F)CC3)c2)cc1-c1nc2ccccc2s1` [Example 115, 3-Benzothiazol-2-yl-5-1-[1-(2,2,2-trifluoroethyl)-piperidin-4-yl]-1H-pyrazol-4-yl-pyridin-2-ylamine dihydrochloride], for which the IC50 against MET (human) and against RON (human) was 1000 to 20000 nM each time.

In the case of `NC(=O)N1CCC(n2cc(-c3cnc(N)c(-c4nc5ccccc5s4)c3)cn2)CC1` [Example 116, 4-[4-(6-Amino-5-benzothiazol-2-yl-pyridin-3-yl)-pyrazol-1-yl]-piperidine-1-carboxamide bis-hydrochloride], the IC50 on MET (human) and against RON (human) was 100 to 1000 nM each time.

`CN(C)C(=O)N1CCC(n2cc(-c3cnc(N)c(-c4nc5ccccc5s4)c3)cn2)CC1` [Example 117, 4-[4-(6-Amino-5-benzothiazol-2-yl-pyridin-3-yl)-pyrazol-1-yl]-piperidine-1-carboxylic acid dimethylamide bis-hydrochloride]: the IC50 at MET (human) and on RON (human) was 100 to 1000 nM each time.

As for `CC(C)n1cc(-c2cnc(N)c(-c3nc4ccccc4s3)c2)cn1` [Example 118, 3-Benzothiazol-2-yl-5-(1-isopropyl-1H-pyrazol-4-yl)-pyridin-2-ylamine bis-hydrochloride], the IC50 at MET (human) and against RON (human) was 100 to 1000 nM each time.

Turning to `Cn1cc(-c2cnc(N)c(-c3nc4ccccc4s3)c2)cn1` [Example 119, 3-Benzothiazol-2-yl-5-(1-methyl-1H-pyrazol-4-yl)-pyridin-2-ylamine bis-hydrochloride], the IC50 against MET (human) and at RON (human) was 1000 to 20000 nM each time.

Regarding `Nc1ncc(-c2cnc(N3CCOCC3)s2)cc1-c1nc2ccccc2s1` [Example 120, 3-Benzothiazol-2-yl-5-(2-morpholin-4-ylthiazol-5-yl)-pyridin-2-ylamine], the IC50 at MET (human) and at RON (human) was 1000 to 20000 nM in each case.

With `CN1CCN(c2ncc(-c3cnc(N)c(-c4nc5ccccc5s4)c3)s2)CC1` [Example 121, 3-Benzothiazol-2-yl-5-[2-(4-methylpiperazin-1-yl)-thiazol-5-yl]-pyridin-2-ylamine dihydrochloride], the IC50 against MET (human) and on RON (human) was 100 to 1000 nM throughout.

On to `Nc1ncc(-c2cnc(N3CCNCC3)s2)cc1-c1nc2ccccc2s1` [Example 122, 3-Benzothiazol-2-yl-5-(2-piperazin-1-ylthiazol-5-yl)-pyridin-2-ylamine dihydrochloride], for which the IC50 against MET (human) and against RON (human) was 100 to 1000 nM each time.

Consider `Nc1ncc(-c2cnn(C3CCC(=O)CC3)c2)cc1-c1nc2ccccc2s1` [Example 123, 4-[4-(6-Amino-5-benzothiazol-2-ylpyridin-3-yl)-pyrazol-1-yl]-cyclohexanone], for which the IC50 at MET (human) and at RON (human) was 100 to 1000 nM each time.

With `Nc1ncc(-c2cnn(C3CCC4(CC3)OCCO4)c2)cc1-c1nc2ccccc2s1` [Example 124, 3-Benzothiazol-2-yl-5-[1-(1,4-dioxaspiro[4.5]dec-8-yl)-1H-pyrazol-4-yl]-pyridin-2-ylamine], the IC50 (commonly the point on the concentration scale where inhibition reaches its midpoint) is greater than 20000 nM at MET (human) and 1000 to 20000 nM at RON (human).

Regarding `CC(C)(C)OC(=O)NCC#Cc1cnc(N)c(-c2nc3ccccc3s2)c1` [Example 125, [3-(6-Amino-5-benzothiazol-2-ylpyridin-3-yl)-prop-2-ynyl]-carbamic acid tert-butyl ester], the IC50 at MET (human) is 1000 to 20000 nM; at RON (human) it was greater than 20000 nM.

For the compound `NCC#Cc1cnc(N)c(-c2nc3ccccc3s2)c1` [Example 126, 5-(3-Aminoprop-1-ynyl)-3-benzothiazol-2-ylpyridin-2-ylamine], the figures for the IC50 on MET (human) and on RON (human) were 1000 to 20000 nM and greater than 20000 nM, respectively.

For `CN(C)C(=O)NCC#Cc1cnc(N)c(-c2nc3ccccc3s2)c1` [Example 127, 3-[3-(6-Amino-5-benzothiazol-2-ylpyridin-3-yl)-prop-2-ynyl]-1,1-dimethylurea], the IC50 on MET (human) and on RON (human) was 1000 to 20000 nM each time.

As to `CCN1CCN(C(=O)NCC#Cc2cnc(N)c(-c3nc4ccccc4s3)c2)CC1` [Example 128, 4-Ethylpiperazine-1-carboxylic acid [3-(6-amino-5-benzothiazol-2-ylpyridin-3-yl)-prop-2-ynyl]-amide], the IC50 at MET (human) and on RON (human) was 1000 to 20000 nM in each case.

Consider `NC(=O)NCC#Cc1cnc(N)c(-c2nc3ccccc3s2)c1` [Example 129, [3-(6-Amino-5-benzothiazol-2-ylpyridin-3-yl)-prop-2-ynyl]-urea], for which the IC50 at MET (human) and on RON (human) was 1000 to 20000 nM in each case.

As to `CN(C)CC(=O)NCC#Cc1cnc(N)c(-c2nc3ccccc3s2)c1` [Example 130, N-[3-(6-Amino-5-benzothiazol-2-ylpyridin-3-yl)-prop-2-ynyl]-2-dimethylaminoacetamide], the IC50 at MET (human) was in the range of 100 to 1000 nM; against RON (human) it was 1000 to 20000 nM.

As for `Nc1ncc(C#CCNC(=O)CN2CCCC2)cc1-c1nc2ccccc2s1` [Example 131, N-[3-(6-Amino-5-benzothiazol-2-ylpyridin-3-yl)-prop-2-ynyl]-2-pyrrolidin-1-ylacetamide], the IC50 at MET (human) and against RON (human) was 1000 to 20000 nM throughout.

As for `Nc1ncc(-c2cnn(CC(=O)N3CCOCC3)c2)cc1-c1nc2ccccc2s1` [Example 132, 2-[4-(6-Amino-5-benzothiazol-2-ylpyridin-3-yl)-pyrazol-1-yl]-1-morpholin-4-ylethanone], the IC50 against MET (human) and on RON (human) was 1000 to 20000 nM in each case.

With `Nc1ncc(-c2cnn(CC(=O)N3CCCC3)c2)cc1-c1nc2ccccc2s1` [Example 133, 2-[4-(6-Amino-5-benzothiazol-2-ylpyridin-3-yl)-pyrazol-1-yl]-1-pyrrolidin-1-ylethanone], the IC50 on MET (human) and against RON (human) was 1000 to 20000 nM each time.

For `COCCNC(=O)Cn1cc(-c2cnc(N)c(-c3nc4ccccc4s3)c2)cn1` [Example 134, 2-[4-(6-Amino-5-benzothiazol-2-ylpyridin-3-yl)-pyrazol-1-yl]-N-(2-methoxyethyl)-acetamide], the half-maximal inhibitory concentration (IC50) against MET (human) and against RON (human) was 1000 to 20000 nM in each case.

`Nc1ncc(-c2cnn(CC(=O)N3CCC(O)C3)c2)cc1-c1nc2ccccc2s1` (stereo not shown) [Example 135, 2-[4-(6-Amino-5-benzothiazol-2-ylpyridin-3-yl)-pyrazol-1-yl]-1-(3-hydroxypyrrolidin-1-yl)-ethanone]: the IC50 against MET (human) and at RON (human) was 1000 to 20000 nM throughout.

Turning to `Nc1ncc(-c2cnn(CC(=O)NCCO)c2)cc1-c1nc2ccccc2s1` [Example 136, 2-[4-(6-Amino-5-benzothiazol-2-ylpyridin-3-yl)-pyrazol-1-yl]-N-(2-hydroxyethyl)-acetamide], the IC50 at MET (human) and against RON (human) was 1000 to 20000 nM throughout.

Regarding `CNC(=O)Cn1cc(-c2cnc(N)c(-c3nc4ccccc4s3)c2)cn1` [Example 137, 2-[4-(6-Amino-5-benzothiazol-2-ylpyridin-3-yl)-pyrazol-1-yl]-N-methylacetamide], the IC50 against MET (human) and at RON (human) was greater than 20000 nM throughout.

With `COCCN(CCOC)C(=O)Cn1cc(-c2cnc(N)c(-c3nc4ccccc4s3)c2)cn1` [Example 138, 2-[4-(6-Amino-5-benzothiazol-2-ylpyridin-3-yl)-pyrazol-1-yl]-N,N-bis-(2-methoxyethyl)-acetamide], the IC50 on MET (human) and at RON (human) was 1000 to 20000 nM in each case.

Turning to `Nc1ncc(-c2cnn(CC(=O)N3CCC(O)CC3)c2)cc1-c1nc2ccccc2s1` [Example 139, 2-[4-(6-Amino-5-benzothiazol-2-ylpyridin-3-yl)-pyrazol-1-yl]-1-(4-hydroxypiperidin-1-yl)-ethanone], the IC50 against MET (human) and against RON (human) was 1000 to 20000 nM each time.
